Data on 1 compound can be found in ChEMBL document CHEMBL5543174, “A Nonbactericidal Anionic Antimicrobial Peptide Provides Prophylactic and Therapeutic Efficacies against Bacterial Infections in Mice by Immunomodulatory-Antithrombotic Duality” (J Med Chem, 2024).

One assay concerns Peritoneal macrophage. The experiment in a line: Immunoregulatory activity in mouse Peritoneal macrophage assessed as upregulation of JNK phosphorylation incubated for 1 hr by Western blotting analysis. Format: functional, cell-based. On the technique in general: A western blot detects proteins with antibodies after separation by electrophoresis.
In assay [1] the test system is Staphylococcus aureus. The experiment in a line: Antibacterial activity against Methicillin-resistant Staphylococcus aureus infected in C57BL/6 mouse with clodronate liposome-induced monocyte depletion model assessed as reduction of bacterial burden in peritoneal cavity at 10 mg/kg,ip administrated 5 hrs after bacterial infection measured after 24 hrs. It counts as functional, organism-based. Particulars: time 19.0 hrs.

Assay [2] has as its system Peritoneal macrophage cell. The experiment in a line: Induction of chemotaxis in mouse Peritoneal macrophage assessed as upregulation of CXCL2 expression incubated for 6 hrs by ELISA. It counts as functional, cell-based. On the technique in general: An ELISA detects its analyte on a solid surface through an enzyme-linked reagent.
In assay [3] the test system is Escherichia coli. Briefly: Antimicrobial activity against Escherichia coli ATCC 25922 assessed as inhibition of microbial growth at <= 200 ug/ml incubated for 18 hrs by micro-broth dilution method. It counts as functional, organism-based. As to conditions: dose <= 200.0 µg/ml.
The test system of another assay is Neutrophil. The experiment in a line: Induction of immune response in mouse bone marrow derived neutrophil assessed as neutrophil extracellular trap formation at 100 ug/ml incubated for 4 hrs by DAPI staining based fluorescence microscopic analysis. It counts as functional, cell-based. As to conditions: dose 100.0 µg/ml.
The test system of assay [4] is Staphylococcus aureus. Briefly: Antibacterial activity against Methicillin-resistant Staphylococcus aureus infected in C57BL/6 mouse assessed as reduction in TNF-alpha level in serum at 10 mg/kg,ip pre-administrated 5 hrs before bacterial infection measured after 24 hrs by ELISA. It counts as functional, organism-based. As to conditions: time 29.0 hrs.
Assay [5] deals with Staphylococcus aureus. Briefly: Antibacterial activity against Methicillin-resistant Staphylococcus aureus infected in C57BL/6 mouse assessed as reduction in inflammatory injury in lung at 10 mg/kg,ip administrated 5 hrs after bacterial infection measured after 24 hrs by hematoxylin and eosin staining based analysis. Particulars: time 19.0 hrs. It counts as functional, organism-based.

The test system of assay [6] is Mus musculus. Briefly: Inhibition of fibrin formation in mouse infected with Methicillin-resistant Staphylococcus aureus assessed as reduction in fibrin deposition in lung at 10 mg/kg,ip pre-administrated 5 hrs before bacterial infection measured after 24 hrs by immunohistochemical analysis. Format: functional, organism-based. Particulars: time 29.0 hrs.
For assay [7], the system named is Escherichia coli. The experiment in a line: Antibacterial activity against Carbapenem-resistant Escherichia coli infected in C57BL/6 mouse assessed as reduction in TNF-alpha level in serum at 10 mg/kg,ip administrated 5 hrs after bacterial infection measured after 24 hrs by ELISA. It counts as functional, organism-based. Particulars: time 19.0 hrs.
Assay [8] deals with Escherichia coli. Briefly: Antibacterial activity against Escherichia coli ATCC 25922 infected in C57BL/6 mouse assessed as reduction in bacterial load at 10 mg/kg,ip pre-administrated 5 hrs before bacterial infection. Format: functional, organism-based.
For assay [9], the system named is Escherichia coli. Briefly: Antibacterial activity against Carbapenem-resistant Escherichia coli infected in C57BL/6 mouse assessed as increase in survival rate at 10 mg/kg,ip administrated 5 hrs after bacterial infection measured after 7 days. Format: functional, organism-based. As to conditions: time 7.0 day.
Assay [10] concerns Escherichia coli. The experiment in a line: Antimicrobial activity against Escherichia coli ATCC 25922 assessed as reduction in microbial colony forming unit at 200 ug/ml incubated for 1 to 4 hrs by time-kill kinetics based analysis. Format: functional, organism-based. Particulars: dose 200.0 µg/ml, time 1-4 hrs.
For assay [11], the system named is Mus musculus. The experiment in a line: Anticoagulation activity in mouse assessed as change in plasma TFPI expression at 10 mg/kg,ip measured after 24 hrs by ELISA. Format: functional, organism-based.
Assay [12] has as its system Escherichia coli. The experiment in a line: Antibacterial activity against Escherichia coli ATCC 25922 infected in C57BL/6 mouse assessed as reduction in TNF-alpha level in serum at 10 mg/kg,ip pre-administrated 5 hrs before bacterial infection measured after 24 hrs by ELISA. Format: functional, organism-based. As to conditions: time 29.0 hrs.
A further assay deals with Salmonella paratyphi. Briefly: Antimicrobial activity against Salmonella paratyphi ATCC 9150 assessed as inhibition of microbial growth at <= 200 ug/ml incubated for 18 hrs by micro-broth dilution method. It counts as functional, organism-based. As to conditions: Salmonella enterica subsp. enterica serovar Paratyphi A, dose <= 200.0 µg/ml.
The test system of assay [13] is Staphylococcus aureus. The experiment in a line: Antibacterial activity against Methicillin-resistant Staphylococcus aureus infected in C57BL/6 mouse assessed as reduction in IL-1beta level in serum at 10 mg/kg,ip administrated 5 hrs after bacterial infection measured after 24 hrs by ELISA. It counts as functional, organism-based. Particulars: time 19.0 hrs.
The test system of assay [14] is Mus musculus. The experiment in a line: Immunomodulatory activity in clodronate liposome immunosuppressed C57BL/6 mouse with neutrophil depletion model assessed as change in B-lymphocytes in peritoneal lavage at 10 mg/kg,ip administration measured after 5 to 24 hrs by flow cytometry. Particulars: time 5-24 hrs. Format: functional, organism-based.
The test system of assay [15] is Escherichia coli. The experiment in a line: Antibacterial activity against Carbapenem-resistant Escherichia coli infected in C57BL/6 mouse with cyclophosphamide-induced neutrophil depletion model assessed as decrease in bacterial burden in peritoneal cavity at 10 mg/kg,ip pre-administrated 5 hrs before bacterial infection measured after 24 hrs. It counts as functional, organism-based. As to conditions: time 29.0 hrs.

Assay [16] deals with Escherichia coli. The experiment in a line: Antibacterial activity against Carbapenem-resistant Escherichia coli infected in C57BL/6 mouse assessed as reduction in IL-1beta level in peritoneal fluid at 10 mg/kg,ip pre-administrated 5 hrs before bacterial infection measured after 24 hrs by ELISA. It counts as functional, organism-based. As to conditions: time 29.0 hrs.

Activity calls are given as the source filed them. The calls are words filed in the database; no cut-off is given here.

For the compound `CC[C@H](C)[C@H](NC(=O)[C@@H]1CSSC[C@H](NC(=O)[C@H](CCC(=O)O)NC(=O)[C@@H](NC(=O)[C@H](CCCCN)NC(=O)[C@H](Cc2c[nH]cn2)NC(=O)[C@@H](NC(=O)[C@H](CCCCN)NC(=O)[C@H](CCC(=O)O)NC(=O)[C@H](C)NC(=O)[C@H](CCC(=O)O)NC(=O)[C@H](CCC(=O)O)NC(=O)[C@H](CCC(=O)O)NC(=O)[C@H](C)N)[C@@H](C)O)[C@@H](C)O)C(=O)N[C@@H](CC(C)C)C(=O)N[C@@H](CCC(=O)O)C(=O)N1)C(=O)N[C@@H](Cc1ccccc1)C(=O)N[C@H](C(=O)N[C@@H](CC(C)C)C(=O)N[C@@H](CC(C)C)C(=O)N1CCC[C@H]1C(=O)N1CCC[C@@H]1C(=O)N[C@H](C)C(=O)O)[C@@H](C)O`, the Activity result (with Peritoneal macrophage; in assay [2]) was “Dose-Dependent Effect” each time. For the same compound, the outcome in the assay on Staphylococcus aureus [1], with Escherichia coli [3], with Escherichia coli [10], with Mus musculus [11], in the assay with Salmonella paratyphi and with Mus musculus [14] was inactive. Besides, the outcome with Escherichia coli [15] was inactive. For the same compound, the outcome in the assay with Neutrophil, with Staphylococcus aureus [4], with Staphylococcus aureus [5], in the assay with Escherichia coli [7], in the assay with Escherichia coli [8] and in the assay with Escherichia coli [9] was Active. Moreover, the result in the assay with Escherichia coli [12], in the assay with Staphylococcus aureus [13] and with Escherichia coli [16] was Active. The inhibition entry with Mus musculus [6] is “Active”.
